46 compounds from US9340577B2, “HLA binding motifs and peptides and their uses” (priority 1992, dated 2016) can be followed below.

No end group written: not given here. A value given as a limit tells only on which side of the number the result lay.

Assay in all cases: biochemical
Type in all cases: binding

Test [1] deals with A*6801 (Homo sapiens, UniProt P04439, A269V/D185E/E176V/E277Q/E87N/F33Y/G231S/I121M/I166T/I218V/L180W/L300P/L318F/N151K/P208A/P217A/Q86R/R169H/T345S).
Test [2] addresses A*3301 (Homo sapiens, UniProt P04439, A270S/D185E/E176V/E277Q/E87N/F33T/G231S/H175R/I121M/I218V/I322F/K168Q/K210R/L300P/L318F/M331R/P217A/Q86R/Q94H/R138Q/T323A/T345S/T97I/V358M/Y195H).
The target in test [3] is HLA-A11 (A*1101) (Homo sapiens, UniProt P04439, A114D/D185E/E176A/F33Y/L180Q/S129P/T187R).
For test [4], the target named is HLA-A3.2 (A*0301) (Homo sapiens, UniProt P04439).
The target in test [5] is A31 (A*3101) (Homo sapiens, UniProt P04439, A270S/D185E/E176V/E277Q/F33T/G231S/G80R/H175R/I121M/I218V/I322F/K168Q/L300P/L318F/M331R/P217A/Q94H/R138Q/T323A/T345S/T97I/V358M).

Consider RTHSSHLKSKK [Peptide 1556.76], for which the IC50 (commonly the concentration at which inhibition is half-maximal) in test [1] was found to be 1360 nM; in test [2], 10.7 µM; in test [3], 9.8 nM; in test [4] it was 59 nM.
As for RILSTYLGR [Peptide 9017.0072], the IC50 in test [5] was found to be 1.6 nM; in test [1], 457 nM; in test [3] it was 7.2 nM; in test [4], 7.5 nM.
On the same counts, the results for SQWIRFRCSK [Peptide 88.0147] are 373 nM, 11800 nM, 130 nM and 415 nM.
As for `CC[C@H](C)[C@H](N)C(=O)N[C@@H](CO)C(=O)N[C@@H](Cc1ccccc1)C(=O)N[C@@H](C)C(=O)NCC(=O)N[C@H](C(=O)N[C@H](C(=O)N[C@H](C(=O)N[C@@H](CCCCN)C(=O)O)[C@@H](C)O)C(C)C)[C@@H](C)CC` [Peptide 1589.17], the IC50 stood at 31 nM in test [1], 4.37 µM in test [2], 9.5 nM in test [3] and 33 nM in test [4].
In the same order, the values of FTAFLGAFK [Peptide 88.0362] are 5.4 nM, 0.071 µM, 3.8 nM and 31 nM.
On the same counts, the results for ALKGLAQSK [Peptide 88.0416] are greater than 20000 nM, greater than 20 µM, 1660 nM and 65 nM.
For the compound FLGAFKKFLK [Peptide 88.0169], the IC50 turned out to be 11 nM in test [5], 275 nM in test [1], 9.6 nM in test [3] and 3.3 nM in test [4].
With IQIKRRQQK [Peptide 9012.0207], the IC50 was greater than 20000 nM in test [1], greater than 20 µM in test [2], 20 nM in test [3] and 29 nM in test [4].
Regarding AFNSSHKGR [Peptide 88.0394], the IC50 was 55 nM in test [5], greater than 20000 nM in test [1], greater than 20000 nM in test [3] and greater than 20000 nM in test [4].
GVEFISFLR [Peptide 1587.55]: the IC50 is 124 nM in test [5], 48 nM in test [1], 440 nM in test [3] and greater than 20000 nM in test [4].
In the case of ITVYYGVPVWR [Peptide 1525.06], the half-inhibitory concentration (IC50) in test [5] amounted to 13 nM; in test [1], 5.4 nM; in test [3], 76 nM; in test [4] it was 831 nM.
CFYSPALNK [Peptide 1556.43]: the half-maximal inhibitory concentration (IC50) turned out to be 1450 nM in test [1], 0.122 µM in test [2], 74 nM in test [3] and 127 nM in test [4].
In the case of IVGWPAVRER [Peptide 9017.0186], the concentration for half-maximal inhibition (IC50) worked out at 110 nM in test [5], 81 nM in test [1], 1170 nM in test [3] and 630 nM in test [4].
QQMNMCQWIK [Peptide 88.0186]: the IC50 in test [1] is 197 nM; in test [2], 13.1 µM; in test [3], 20 nM; in test [4], 346 nM.
In the same order, the values of KTLEERVKK [Peptide 78.0294] are greater than 20000 nM, greater than 20 µM, 160 nM and 302 nM.
In the same order, the values of GVIVMMLIR [Peptide 88.0376] are 2770 nM, 0.214 µM, 434 nM and 2380 nM.
In the same order, the values of VTVYDGVPVWR [Peptide 1525.08] are 59 nM, 5.72 µM, 246 nM and 7840 nM.
Consider KIDRLIDRIR [Peptide 9017.0249], for which the IC50 in test [1] was greater than 20000 nM; in test [2] it was greater than 20 µM; in test [3], greater than 20000 nM; in test [4], greater than 20000 nM.
Consider QVLHLLKRK [Peptide 88.0365], for which the IC50 in test [1] came out at 801 nM; in test [2], 1.85 µM; in test [3] it was 320 nM; in test [4] it was 1550 nM.
Take FTAFLGAFKK [Peptide 88.0168]: the IC50 in test [5] was greater than 20000 nM; in test [1], 20 nM; in test [3], 25 nM; in test [4] it was 1900 nM.
On the same counts, the results for LQQLLFIHFR [Peptide 9017.0241] are 1.3 nM, 81 nM, 58 nM and 2490 nM.
AQVLHVLKRK [Peptide 88.0141]: the IC50 in test [1] was 15800 nM; in test [2], greater than 20 µM; in test [3] it was 104 nM; in test [4] it was 161 nM.
On to ETNEALELK [Peptide 1556.68], for which the IC50 in test [5] was greater than 20000 nM; in test [1], 1440 nM; in test [3] it was 93 nM; in test [4], 16800 nM.
Turning to STAAALYWYK [Peptide 1587.06], the IC50 is 5.9 nM in test [1], 1.6 nM in test [3] and 4.5 nM in test [4].
On to KAILGQVVR [Peptide 9017.0092], for which the IC50 in test [1] is 159 nM; in test [2] it was greater than 20 µM; in test [3], 5340 nM; in test [4] it was 15500 nM.
In the same order, the values of RTLTLLSVTK [Peptide 1556.13] are 219 nM, 6.76 µM, 15 nM and 23 nM.
Turning to LVKMFCQLAK [Peptide 1556.50], the IC50 in test [5] is 3340 nM; in test [1], 221 nM; in test [3], 189 nM; in test [4] it was 1200 nM.
On the same counts, the results for GVSIEWRLRR [Peptide 9017.0220] are 189 nM, 4420 nM, 468 nM and 7780 nM.
For DSNACAFLK [Peptide 1587.33], the IC50 stood at 68 nM in test [1], 0.039 µM in test [2], 303 nM in test [3] and 1420 nM in test [4].
For the compound LNKMFCQLAR [Peptide 1556.49], the figures for the IC50 in test [1], in test [3] and in test [4] were 1800 nM, 8880 nM and 11100 nM, respectively.
On to VTYHSETQR [Peptide 1589.10], for which the half-inhibitory concentration (IC50) came out at 66 nM in test [5], 32 nM in test [1], 22 nM in test [3] and 29 nM in test [4].
Turning to ALTALIKPK [Peptide 9017.0098], the IC50 in test [1] was 6020 nM; in test [2], greater than 20 µM; in test [3], 19 nM; in test [4], 24 nM.
Take RVHSSHLK [Peptide 1556.72]: the IC50 in test [5] was 483 nM; in test [1], 1630 nM; in test [3], 13 nM; in test [4] it was 144 nM.
Turning to TLDVYMIMVK [Peptide 9012.0258], the IC50 in test [1] is 2030 nM; in test [2], greater than 20 µM; in test [3], 17 nM; in test [4], 1560 nM.
Regarding QLVTQLMPK [Peptide 9012.0211], the IC50 was greater than 20000 nM in test [5], 2260 nM in test [1], 79 nM in test [3] and 88 nM in test [4].
In the same order, the values of GVMCRHYKR [Peptide 88.0388] are 37 nM, 93 nM, 80 nM and 2890 nM.
Take LLLIRFRCSK [Peptide 88.0164]: the IC50 in test [1] was 732 nM; in test [2], greater than 20 µM; in test [3] it was 6980 nM; in test [4] it was 205 nM.
In the same order, the values of SLYGKTLEER [Peptide 78.0142] are 178 nM, 5.5 µM, 1730 nM and 56 nM.
On the same counts, the results for ATLQDIVLH [Peptide 78.0278] are greater than 20000 nM, greater than 20 µM, 152 nM and 4510 nM.
In the same order, the values of STWHWTSDNK [Peptide 1589.22] are 18 nM, greater than 20 µM, 17 nM and 161 nM.
As to QTRSLTEILK [Peptide 9012.0217], the IC50 in test [5] is 3170 nM; in test [2], 19.8 µM; in test [3] it was 96 nM; in test [4], 250 nM.
In the same order, the values of QLALEALNK [Peptide 88.0424] are greater than 20000 nM, greater than 20 µM, 155 nM and 166 nM.
On to LALTALITPK [Peptide 9017.0228], for which the IC50 was 1730 nM in test [5], greater than 20 µM in test [2], 6.6 nM in test [3] and 88 nM in test [4].
For VSYWGVYYIK [Peptide 1589.25], the IC50 in test [1] amounted to 24 nM; in test [2], 11.5 µM; in test [3], 3 nM; in test [4], 109 nM.
With WFFVETIVEK [Peptide 88.0171], the IC50 is 18300 nM in test [5], 0.201 µM in test [2], 1480 nM in test [3] and 13700 nM in test [4].
For the compound WTLELLEELK [Peptide 9017.0238], the IC50 in test [5] is 17200 nM; in test [2], greater than 20 µM; in test [3] it was 3840 nM; in test [4] it was greater than 20000 nM.
